Experimental findings from patent publication US20230086702A1, “SUBSTITUTED 2-AMINO-PYRAZOLYL-[1,2,4]TRIAZOLO[1,5A]PYRIDINE DERIVATIVES AND USE THEREOF” (The Johns Hopkins University, priority 2019, published 2023) are described below.

Molecules are shown by their SMILES.

In general, IC50 refers to the point on the concentration scale where inhibition reaches its midpoint. A low value points to greater potency in that assay.

In one assay the target is T1, DLK (Homo sapiens, UniProt Q12852).
T1 construct: 10 nM DLK, catalytic domain, Carna Biosiences; purchased Carna Biosciences ('Carna Biosiences' [sic])
T1 sequence (Q12852 125-366 limits assumed): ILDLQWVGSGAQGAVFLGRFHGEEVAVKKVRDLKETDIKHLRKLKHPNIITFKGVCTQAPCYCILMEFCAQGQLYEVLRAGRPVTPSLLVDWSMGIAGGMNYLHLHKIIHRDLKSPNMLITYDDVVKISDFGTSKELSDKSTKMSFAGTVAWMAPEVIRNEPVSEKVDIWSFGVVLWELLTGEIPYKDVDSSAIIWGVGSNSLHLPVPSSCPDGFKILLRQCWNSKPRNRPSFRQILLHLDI
The assay can be described thus: DLK biochemical assay (TR-FRET, MKK7 phosphorylation). As to the method: (§1) DLK assay is a biochemical assay format designed to screen for inhibitors of DLK. Enzymatic activity of DLK is measured by monitoring phosphorylation of the physiological substrate MKK7 (MAP2K7, Dual specificity mitogen-activated protein kinase kinase 7). Phosphorylation is detected by a TR-FRET system whereby His-tagged MKK7 is labeled by a XL665-labeled anti-His antibody (FRET acceptor, emission 665 nm). DLK phosphorylates MKK7 at T275/S277, which is detected by an Eu-labeled anti-phospho-MKK7 (T275/S277) antibody (FRET donor, excitation 340 nm). Phosphorylation of MKK7 results in an increased TR-FRET signal (Ratio XL665-channel/Eu-channel) and inhibition of enzymatic activity of DLK decreases the TR-FRET signal.
Assay Protocol for 1536 MTP format: test compounds are predispensed (60 nl) in test plates; +3 μl DLK solution (10 nM DLK, catalytic domain, Carna Biosiences, 0.6 mM DTT in assay buffer); +2 μl substrate solution (15 nM MKK7, LDB; 60 μM ATP; 0.4 mM DTT in assay buffer); 90 min incubation at RT; +2 μl detection mix (5 nM XL665-labeled anti-His antibody, Cisbio; 0.1 nM Eu-labeled anti-phospho-MKK7 (T275/S277), Cisbio/Millipore in detection buffer); 16 h incubation at 37° C.; endpoint measurement BMG (HTRF).
Assay Protocol for 384 low volume MTP format: 1 μl of test compounds is pipetted into test plate; +5 μl DLK solution (10 nM DLK, catalytic domain, Carna Biosiences in assay buffer); +5 μl substrate solution (15 nM MKK7, LDB; 60 μM ATP, in assay buffer); 90 min incubation at RT; +9 μl detection mix (20 nM XL665-labeled anti-His antibody, Cisbio; 0.4 nM Eu-labeled anti-phospho-MKK7 (T275/S277), Cisbio/Millipore in detection buffer); 16 h incubation at 4° C.; endpoint measurement BMG (HTRF).
(§2) All indicated concentrations final concentrations.
(§3) Assay buffer (384 format): 50 mM Hepes pH 7.5, 10 mM MgCl2, 1 mM EGTA, 1 mM DTT, 0.01% Triton X-100, 0.01% BSA, 1:500 Smart Block.
(§4) Detection buffer: 25 mM Tris/HCl pH 7.5, 100 mM EDTA, 100 mM NaCl, 200 mM KF, 0.01% Tween 20, 1:500 Smart Block.
(In TR-FRET formats the signal depends on donor and acceptor labels being close together.)

Another assay has as its target T2, LZK (Homo sapiens, UniProt O43283).
T2 construct: 10 nM LZK, catalytic domain, Carna Biosiences in assay buffer; purchased Carna Biosciences ('Carna Biosiences' [sic])
T2 sequence (O43283 168-409 limits assumed): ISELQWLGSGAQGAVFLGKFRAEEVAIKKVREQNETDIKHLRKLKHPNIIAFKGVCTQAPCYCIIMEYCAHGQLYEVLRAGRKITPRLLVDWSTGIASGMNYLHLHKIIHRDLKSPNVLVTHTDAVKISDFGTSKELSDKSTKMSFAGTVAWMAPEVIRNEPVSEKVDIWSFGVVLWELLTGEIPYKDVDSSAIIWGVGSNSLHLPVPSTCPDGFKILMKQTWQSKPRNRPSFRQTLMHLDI
In words: LZK biochemical assay (TR-FRET, MKK7 phosphorylation). As to the method:
as §1, with “LZK” for “DLK”, “LZK.” for “DLK.”, “T275/S277” for “T275/S277,”
Assay Protocol for 384 low volume MTP format: 1 μl of test compound is pipetted into test plate; +5 μl LZK solution (10 nM LZK, catalytic domain, Carna Biosiences in assay buffer); +5 μl substrate solution (15 nM MKK7, LDB; 15 μM ATP, in assay buffer); 90 min incubation at RT; +5 μl detection mix (20 nM XL665-labeled anti-His antibody, Cisbio; 0.4 nM Eu-labeled anti-phospho-MKK7 (T275/S277), Cisbio/Millipore in detection buffer); 16 h incubation at 32° C.; endpoint measurement BMG (HTRF).
as §2, §3, §4

For the compound `CC(C)(O)c1cccc(-c2cc(-c3cnn(C(c4ccc(C(F)(F)F)nc4)C4CCOCC4)c3)cn3nc(N)nc23)c1` (single isomer, unassigned) [II-11, 2-{3-[2-Amino-6-(1-{tetrahydro-2H-pyran-4-yl[6-(trifluoromethyl)pyridin-3-yl]methyl}-1H-pyrazol-4-yl)[1,2,4]triazolo[1,5-a]pyridin-8-yl]phenyl}propan-2-ol], the IC50 against DLK came out at 1.4 nM; against LZK, 3 nM.
On the same counts, the results for `CCC(c1ccc(C(F)(F)F)nc1)n1cc(-c2cc(-c3cnn(CC(F)(F)F)c3)c3nc(N)nn3c2)cn1` (racemic) [II-111, 8-[1-(2,2,2-trifluoroethyl)-1H-pyrazol-4-yl]-6-(1-{1-[6-(trifluoromethyl)pyridin-3-yl]propyl}-1H-pyrazol-4-yl)[1,2,4]triazolo[1,5-a]pyridin-2-amine] are 14 nM and 34 nM.
On the same counts, the results for `CC(C)c1nnc(-c2cc(-c3cnn(Cc4ccccc4)c3)cn3nc(N)nc23)s1` [II-198, 6-(1-Benzyl-1H-pyrazol-4-yl)-8-[5-(propan-2-yl)-1,3,4-thiadiazol-2-yl][1,2,4]triazolo[1,5-a]pyridin-2-amine] are 150 nM and 260 nM.
With `CC(C)C(c1ccc(C(F)(F)F)nc1)n1cc(-c2cc(-c3ccc(C4(O)CCC4)nc3)n3nc(N)nc3c2)cn1` (single isomer, unassigned) [II-82, 1-{5-[2-Amino-7-(1-{2-methyl-1-[6-(trifluoromethyl)pyridin-3-yl]propyl}-1H-pyrazol-4-yl)[1,2,4]triazolo[1,5-a]pyridin-5-yl]pyridin-2-yl}cyclobutan-1-ol], the concentration for half-maximal inhibition (IC50) against DLK and at LZK was 42 nM throughout.
As to `CCC(c1ccc(C(F)(F)F)nc1)n1cc(-c2cc(-c3cccc(C(C)(C)O)c3)c3nc(N)nn3c2)cn1` (racemic) [II-7, 2-{3-[2-Amino-6-(1-{1-[6-(trifluoromethyl)pyridin-3-yl]propyl}-1H-pyrazol-4-yl)[1,2,4]triazolo[1,5-a]pyridin-8-yl]phenyl}propan-2-ol], the 50% inhibitory concentration (IC50) at DLK stood at 0.8 nM; against LZK it was 3.3 nM.
On the same counts, the results for `CC[C@@H](c1ccccc1)n1cc(-c2cc(-c3cnn(C)c3)c3nc(N)nn3c2)cn1` [II-90, 8-(1-Methyl-1H-pyrazol-4-yl)-6-{1-[(1S)-1-phenylpropyl]-1H-pyrazol-4-yl}[1,2,4]triazolo[1,5-a]pyridin-2-amine] are 6.5 nM and 230 nM.
On the same counts, the results for `CC(C)C(c1ccc(C(F)(F)F)nc1)n1cc(-c2cc(-c3ccc(C4CC(F)(F)C4)nc3)n3nc(N)nc3c2)cn1` (racemic) [II-73, 5-[6-(3,3-Difluorocyclobutyl)pyridin-3-yl]-7-(1-{2-methyl-1-[6-(trifluoromethyl)pyridin-3-yl]propyl}-1H-pyrazol-4-yl)[1,2,4]triazolo[1,5-a]pyridin-2-amine] are 44 nM and 44 nM.
The matching figures for `CC[C@@H](c1ccc(C(F)(F)F)nc1)n1cc(-c2cc(-c3cnn(CC(F)(F)F)c3)c3nc(N)nn3c2)cn1` (single isomer, unassigned) [II-112, 8-[1-(2,2,2-trifluoroethyl)-1H-pyrazol-4-yl]-6-(1-{1-[6-(trifluoromethyl)pyridin-3-yl]propyl}-1H-pyrazol-4-yl)[1,2,4]triazolo[1,5-a]pyridin-2-amine]: 4.7 nM and 17 nM.
Regarding `Nc1nc2cc(-c3cnn(C(c4ccc(C(F)(F)F)nc4)C4CCOCC4)c3)cc(-c3ccc(=O)n(CC(F)(F)F)c3)n2n1` (single isomer, unassigned) [II-193, 5-[2-Amino-7-(1-{tetrahydro-2H-pyran-4-yl[6-(trifluoromethyl)pyridin-3-yl]methyl}-1H-pyrazol-4-yl)[1,2,4]triazolo[1,5-a]pyridin-5-yl]-1-(2,2,2-trifluoroethyl)pyridin-2(1H)-one], the concentration for half-maximal inhibition (IC50) against DLK is 15 nM; against LZK it was 12 nM.
With `Nc1nc2c(-c3ccc(=O)n(CC(F)(F)F)c3)cc(-c3cnn([C@H](c4ccc(C(F)(F)F)nc4)C4CCOCC4)c3)cn2n1` [II-162], the IC50 amounted to 0.8 nM on DLK and 2 nM at LZK.
On the same counts, the results for `Nc1nc2cc(-c3cnn(C(c4ccccc4)C4CCOCC4)c3)cc(-c3cnn(CC(F)(F)F)c3)n2n1` (centres unmarked) [II-146] are 3.6 nM and 200 nM.
With `CC(C)C(c1ccc(C(F)(F)F)nc1)n1cc(-c2cc(-c3ccc(C4CC(F)(F)C4)nc3)n3nc(N)nc3c2)cn1` (single isomer, unassigned) [II-75, 5-[6-(3,3-Difluorocyclobutyl)pyridin-3-yl]-7-(1-{2-methyl-1-[6-(trifluoromethyl)pyridin-3-yl]propyl}-1H-pyrazol-4-yl)[1,2,4]triazolo[1,5-a]pyridin-2-amine], the IC50 amounted to 27 nM at DLK and 15 nM against LZK.
The matching figures for `CCC(c1ccc(C(F)F)nc1)n1cc(-c2cc(-c3cnn(CC(F)(F)F)c3)c3nc(N)nn3c2)cn1` (racemic) [II-105, 6-(1-{1-[6-(Difluoromethyl)pyridin-3-yl]propyl}-1H-pyrazol-4-yl)-8-[1-(2,2,2-trifluoroethyl)-1H-pyrazol-4-yl][1,2,4]triazolo[1,5-a]pyridin-2-amine]: 9.4 nM and 42 nM.
The matching figures for `CCC(c1ccc(C(F)(F)F)nc1)n1cc(-c2cc(-c3ccn(C)c(=O)c3)c3nc(N)nn3c2)cn1` (centres unmarked) [II-169]: 20 nM and 60 nM.
On the same counts, the results for `CC(C)C(c1ccc(C(F)F)nc1)n1cc(-c2cc(-c3ccc(OC(F)F)nc3)n3nc(N)nc3c2)cn1` (single isomer, unassigned) [II-50, 5-[6-(Difluoromethoxy)pyridin-3-yl]-7-(1-{1-[6-(difluoromethyl)pyridin-3-yl]-2-methylpropyl}-1H-pyrazol-4-yl)[1,2,4]triazolo[1,5-a]pyridin-2-amine] are 280 nM and 270 nM.
With `CCC(c1ccc(C(F)F)nc1)n1cc(-c2cc(-c3cnn(CC(F)(F)F)c3)c3nc(N)nn3c2)cn1` (single isomer, unassigned) [II-107, 6-(1-{1-[6-(Difluoromethyl)pyridin-3-yl]propyl}-1H-pyrazol-4-yl)-8-[1-(2,2,2-trifluoroethyl)-1H-pyrazol-4-yl][1,2,4]triazolo[1,5-a]pyridin-2-amine], the IC50 came to 4 nM against DLK and 10 nM at LZK.
